Values of other authors, collected in patent US10369118B2, “Method of reducing scarring” (Cole Research & Design, Inc., priority 2013, dated 2019).

Legend:
keratinocytes = conditions: appear to be cytotoxic

- solubility in water: very low solubility
SMILES: Oc1ccc(/C=C/c2cc(O)cc(O)c2)cc1 [resveratrol, trans-3,4′,5-trihydroxystilbene]
- concentrations cytotoxic to keratinocytes (keratinocytes): above 100 micromoles/liter
